Reference: article PMC8567988 (Frontiers in Microbiology, 2021)
“And” between values parts separate entries of the source, which are not always exact repeats. Equal values may be shown once. Read-outs that look alike come from different tables or passages of the source.

What was measured:
[1] = tested on: ASFV Ba71V strain; assay: microbe, parasite or virus in culture; conditions: African swine fever virus, Vero, 72 h, read-out: inhibition of ASFV-induced CPE
[2] = tested on: ASFV Ba71V strain
[3] = tested on: ASFV Ba71V strain; format: cell-based, African swine fever virus
[4] = tested on: ASFV Ba71V; format: cell-based, African swine fever virus
[5] = tested on: autophagic vacuoles in Vero cells; format: cell-based, African green monkey
[6] = tested on: ASFV protein (pA104R); format: cell-based, African swine fever virus
[7] = tested on: ASFV Ba71V; format: cell-based, African swine fever virus; remark: listed apart in the source
[8] = tested on: ASFV Arm/07 isolate; format: cell-based, African swine fever virus
[9] = tested on: ASFV Arm/07 isolate; format: cell-based, African swine fever virus; remark: listed apart in the source
[10] = tested on: ASFV Arm/07 isolate; format: cell-based, African swine fever virus; remark: listed apart in the source
[11] = in vivo; cited from earlier work
[12] = tested on: ASFV Ba71V strain; assay: microbe, parasite or virus in culture; format: cell-based, African swine fever virus
[13] = tested on: ASFV Ba71V; format: cell-based, African swine fever virus; remark: listed apart in the source
[14] = tested on: ASFV Arm/07 isolate; format: cell-based, African swine fever virus; remark: listed apart in the source
[15] = tested on: ASFV Ba71V strain; format: cell-based, African swine fever virus; remark: listed apart in the source
[16] = tested on: ASFV Ba71V strain; assay: microbe, parasite or virus in culture; format: cell-based, African swine fever virus; remark: listed apart in the source
[17] = tested on: ASFV; format: cell-based, African swine fever virus
[18] = tested on: porcine macrophages
[19] = tested on: ASFV Ba71V strain; assay: microbe, parasite or virus in culture; format: cell-based, African swine fever virus; remark: listed apart in the source
[20] = tested on: ASFV Ba71V; format: cell-based, African swine fever virus; remark: listed apart in the source
[21] = in vitro; conditions: African green monkey

COc1c2occc2c(OC)c2c(=O)cc(C)oc12 [khellin]
inhibition at 10 µg/mL [1]: > 40% | cell monolayer damage upon treatment [2]: no apparent cell monolayer damage

Oc1ccc2c(c1)OC[C@H]1c3cc4c(cc3O[C@@H]21)OCO4 [maackiain]
inhibition at 20 µg/mL [1]: > 40% | cell monolayer damage upon treatment [2]: no apparent cell monolayer damage

O=c1cc(-c2ccccc2)oc2c1ccc1ccccc12 [7,8-benzoflavone]
ASFV yield after virucidal pre-incubation [3]: 4.64±0.09 log TCID50/ml | inhibition at 10 µg/mL [1]: > 40% | cell monolayer damage upon treatment [2]: no apparent cell monolayer damage

O=c1c(O)c(-c2ccc(O)cc2)oc2cc(O)cc(O)c12 [kaempferol, 3,5,7-trihydroxy-2-(4-hydroxyphenyl)-4H-chromen-4-one]
viral titers as the interval between infection and removal increased [4]: gradual declines in viral titers | formation of autophagic vacuoles [5]: induced the formation of autophagic vacuoles | viral protein synthesis (late protein pA104R) [6]: viral protein synthesis was reduced | decrease of viral DNA in viral factories vs untreated control [7]: 31% | virucidal effect [3]: no virucidal effects | inhibition at 20 µg/mL [1]: > 40% | effect on ASFV entry [8]: could hinder the ASFV attachment and internalization processes | decrease in the amount of viral DNA in ASFV factories [9]: 39% | anti-ASFV activity [10]: Anti-ASFV activity was observed | viral titer [10]: 3.4±0.14 log HADU50/ml | human plasma concentration [11]: around 58 nm | inhibition of the ASFV yield [12]: more than 60% | viral titer, attachment experiment [12]: 3.97±0.25 log TCID50/ml | virus titer, internalization experiment [12]: 3.63±0.11 log TCID50/ml | inhibition at 20 µg/mL ([12]; African swine fever virus, Vero, read-out: inhibition of the ASFV yield, attachment experiment): ~60% | plaque numbers (virus spread) [13]: significant reduction in plaque numbers in a dose-dependent manner | inhibition, log decrease of titer [14]: about 2 log | inhibition, log decrease of ASFV titer [15]: 1.21 log | cell monolayer damage upon treatment [2]: no apparent cell monolayer damage | viral yield [16]: 3.98±0.19 log TCID50/ml | inhibition at 20 µg/mL ([16]; African swine fever virus, Vero, 24 h, read-out: inhibition of ASFV infection): > 92% | antiviral activity in the presence of autophagy inhibitor SP600125 [17]: partially abrogated | cytotoxicity for porcine cells [18]: not cytotoxic | antiviral effect, log decrease of ASFV titer [19]: 1.26 log | IC50 ([19]; African swine fever virus, Vero): 2.2 µg/mL and 7.7 µM | inhibitory effect on ASFV infection [20]: no significant inhibitory effect | suppression of viral infection [20]: more than 90% | viral titer reduction [20]: 1.25 log and 1.1 log

COc1ccc(-c2coc3cc(O)ccc3c2=O)cc1O [calycosin]
inhibition at 20 µg/mL [1]: > 40% | cell monolayer damage upon treatment [2]: no apparent cell monolayer damage

COc1ccc(-c2cc(=O)c3c(O)cc(O[C@@H]4O[C@H](CO[C@@H]5O[C@@H](C)[C@H](O)[C@@H](O)[C@H]5O)[C@@H](O)[C@H](O)[C@H]4O)cc3o2)cc1O [diosmin]
inhibition at 10 µg/mL [1]: > 40% | cell monolayer damage upon treatment [2]: no apparent cell monolayer damage | CC50 [21]: 33.1 µg/mL and 54.4 µM

Oc1c2ccccc2c2c3c(cccc13)N=N2 [SP600125, reference compound]
effect of the inhibitor alone on ASFV infection [17]: only a slight effect on ASFV infection

COc1ccc(-c2cc(=O)c3c(OC)cc(OC)c(OC)c3o2)cc1OC [isosinensetin]
inhibition at 20 µg/mL [1]: > 40% | cell monolayer damage upon treatment [2]: no apparent cell monolayer damage | CC50 [21]: 24.8 µg/mL and 66.6 µM | viability [21]: 58.5%

COc1cc(O)c2c(c1)O[C@H](c1ccc(O)cc1)CC2=O [sakuranetin]
inhibition at 20 µg/mL [1]: > 40% | cell monolayer damage upon treatment [2]: no apparent cell monolayer damage

COc1ccc(-c2cc(=O)c3c(OC)c(OC)c(OC)cc3o2)cc1OC [sinensetin]
inhibition at 20 µg/mL [1]: > 40% | cell monolayer damage upon treatment [2]: no apparent cell monolayer damage | CC50 [21]: 150 µg/mL and 404 µM
